The source made the active and inactive calls. No rule for the calls is given here.
System: Saccharomyces cerevisiae lifespan extension, no nicotinamide
Assay: yeast lifespan extension without nicotinamide, confirmation, yeast lifespan extension project, S. cerevisiae (AID 812);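 also: growth read as optical density after 42 hours of incubation at 30C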

Compound	EC50
CNC(=S)NC1CC2CCCC(C1)N2Cc1ccco1 (stereo not given)	> 40 µM (inactive)
O=c1c2ccccc2nc(-c2ccc(Cl)c(Cl)c2)n1O	> 40 µM (inactive)
CS(=O)(=O)c1nc(-c2ccccc2)cc(C(F)(F)F)n1	> 40 µM (inactive)
CN1C/C(=C/c2cccnc2)C(=O)/C(=C/c2cccnc2)C1	> 40 µM (inactive)
COc1ccc(CN2CCN(C(=O)COc3cccc(C)c3)CC2)c(OC)c1	> 40 µM (inactive)
O=C(O)c1c[nH]c(=S)n1-c1ccc(F)cc1	> 40 µM (inactive)
Cc1ccc(NC(=O)CN2CCN(CCN=CC3=C(O)CC(c4ccccc4)CC3=O)CC2)cc1 (stereo not given)	> 40 µM (inactive)
C[C@]12CC[C@@H](O)C[C@@H]1CC[C@@H]1[C@@H]2CC[C@]2(C)[C@@H](O)CC[C@@H]12	> 40 µM (inactive)
Cc1cc(C)c(NC(=O)/C(=C/c2ccccc2)c2ccccc2)c(C)c1	> 40 µM (inactive)
COc1ccc(C(C)NC(=O)c2ccccc2)cc1 (stereo not given)	> 40 µM (inactive)
O=S(=O)(CCSc1ccccn1)c1nc2ccccc2s1	> 40 µM (inactive)
CCOc1ccc(OCC(=O)c2c(O)c3ccccc3oc2=O)cc1	> 40 µM (inactive)
COc1ccc(/C(O)=C/C(=O)C(=O)Nc2c(C)n(C)n(-c3ccccc3)c2=O)cc1	> 40 µM (inactive)
O=C(NCc1cccnc1)c1ccc(S(=O)(=O)N2CCCCC2)cc1	> 40 µM (inactive)
CCSc1nnc(NC(=O)C2(C)Cc3ccccc3C(=O)O2)s1 (stereo not given)	> 40 µM (inactive)
NC(=S)N/N=C/c1coc2cc(Cl)ccc2c1=O	> 40 µM (inactive)
Cc1cc(NS(=O)(=O)c2ccc(CC(C)C)cc2)no1	> 40 µM (inactive)
CN(c1ccccc1)c1nc2ccsc2c(=O)s1	> 40 µM (inactive)
O=C(c1ccccc1)C(CN1CCCC1)c1ccccc1 (stereo not given)	> 40 µM (inactive)
O=c1cc(-c2ccccc2Cl)oc2ccc([N+](=O)[O-])c(O)c12	> 40 µM (inactive)
O=C(c1ccccc1)c1nc2ccccc2[nH]c1=O	> 40 µM (inactive)
O=C1CC(c2ccc(F)cc2)CC(O)=C1C=NCCN1CCN(C(=O)Nc2ccccc2)CC1 (stereo not given)	> 40 µM (inactive)
CCc1nc(SCC(=O)c2ccc3c(c2)OCCO3)c2ccccc2n1	19.1 µM
CC1=NN(Cc2ccccc2)C(=O)C1C(c1ccccc1)C(C#N)C#N (stereo not given)	> 40 µM (inactive)
Cc1[nH]n(-c2ccccc2)c(=O)c1N=Nc1nccs1	> 40 µM (inactive)

Compound	EC50
CC(C)c1noc2ncc(C(=O)c3cc(Cl)cc(Cl)c3O)cc12	> 40 µM (inactive)
COc1ccc(C(CNC(=O)c2cccc(Br)c2)N2CCCC2)cc1 (stereo not given)	> 40 µM (inactive)
COc1ccc2c(=O)c3c(=O)n(Cc4ccco4)c(-c4ccc(C)cc4)nc3oc2c1	> 40 µM (inactive)
Cc1nonc1NC(=O)CSc1nc(C2CCCCC2)nc2ccccc12	> 40 µM (inactive)
CC(=O)Oc1c(C(=O)c2nnc(C)o2)c(=O)n(C)c2ccccc12	> 40 µM (inactive)
Cc1ccc(C(C2=C(O)CC(C)(C)CC2=O)C2C(=O)CC(C)(C)CC2=O)o1 (stereo not given)	> 40 µM (inactive)
O=C1/C(=C/c2cccnc2)CCC/C1=C\c1cccnc1	> 40 µM (inactive)
O=C1/C(=N/n2cnnc2)c2ccccc2N1Cc1ccccc1	> 40 µM (inactive)
COc1cc(/C=c2\sc3nc(-c4ccncc4)nn3c2=O)ccc1OC(C)=O	> 40 µM (inactive)
O=C(N/N=C/c1cccc(F)c1)c1c(O)c2ccccc2[nH]c1=O	> 40 µM (inactive)
CC1C/C(=C\c2cccnc2)C(=O)/C(=C/c2cccnc2)C1 (stereo not given)	> 40 µM (inactive)
CCOC(=O)C(=Cc1ccc(F)cc1)C(=O)OCC	> 40 µM (inactive)
O=C(NCc1ccco1)c1c(O)c2cccc3c2n(c1=O)CCC3	> 40 µM (inactive)
CCN1C(=O)C(=Cc2ccc(C)s2)C(=O)N(CC)C1=S	> 40 µM (inactive)
CCCCCCC1C(C#N)=C(N)OC2=C1C(=O)CC(C)(C)C2 (stereo not given)	> 40 µM (inactive)
O=c1cc(O)c2c(=O)n(-c3ccccc3)c3c(c2o1)CCCCC3	> 40 µM (inactive)
O=C1c2ccccc2NC(c2cnc3ccccc3n2)N1O (stereo not given)	> 40 µM (inactive)
O=S(=O)(ON(c1ccccc1)S(=O)(=O)c1ccccc1)c1ccccc1	> 40 µM (inactive)
O=C(NCC1CCCO1)c1c(O)c2ccccc2[nH]c1=O (stereo not given)	> 40 µM (inactive)
Cc1cc(C2C(C#N)=C(N)Oc3n[nH]c(C)c32)c(C)s1 (stereo not given)	> 40 µM (inactive)
Cn1c(=O)c(=O)n(C)c2cc(S(=O)(=O)N3CCN(Cc4ccccc4)CC3)ccc21	> 40 µM (inactive)
O=C(Nc1scc(-c2cccs2)c1C(=O)O)c1cccs1	> 40 µM (inactive)
CC(=C1C(=O)c2ccccc2C1=O)N1CCN(c2ccccn2)CC1	> 40 µM (inactive)
CCn1c(/N=C/c2ccccc2NS(=O)(=O)c2ccc(C)cc2)nc2ccccc21	> 40 µM (inactive)
O=C(Oc1ccc2c(c1)OCO2)C12CC3CC(CC(C3)C1)C2	> 40 µM (inactive)

Compound	EC50
COCCCNc1c2c3c(cccc3[nH]c1=O)C(=O)c1ccccc1-2	> 40 µM (inactive)
COc1ccc(-c2cc(N)n(S(=O)(=O)c3c(F)c(F)c(F)c(F)c3F)n2)cc1OC	26.2 µM
O=c1c(Cl)c(NCCCO)cnn1-c1nc2ccccc2[nH]1	> 40 µM (inactive)
O=C(CCc1ccccc1)NCCCN1CCOCC1	> 40 µM (inactive)
C=CCn1c(C)cc(C(=O)COc2ncnc3sccc23)c1C	> 40 µM (inactive)
Nc1sc(-c2ccccc2)cc1C(=O)O	> 40 µM (inactive)
CCOC(=O)/C(=C/c1ccc(OC(=O)c2ccccc2)cc1)C(C)=O	> 40 µM (inactive)
CCCCNC(=O)/C(C#N)=C/c1cccnc1	> 40 µM (inactive)
CCC1CCCCN1S(=O)(=O)c1ccc(S(=O)(=O)N(Cc2cccs2)C2CC2)cc1 (stereo not given)	> 40 µM (inactive)
Cc1cccc(N2C(=O)C(Oc3ccc(Cl)cc3Cl)C2C=O)c1C (stereo not given)	> 40 µM (inactive)
CCOC(=O)c1cnc(-c2ccccc2)nc1Oc1ccc(Cl)cc1	> 40 µM (inactive)
O=[N+]([O-])c1cc2oc3c(c2c(C=NCc2ccccc2)c1O)CCCC3	> 40 µM (inactive)
COc1ccc(NC(=S)N2CCN(CCN=CC3=C(O)CC(c4ccccc4)CC3=O)CC2)cc1 (stereo not given)	> 40 µM (inactive)
CCOC(=O)CS(=O)(=O)c1nc(-c2ccc(F)cc2)cc(C(F)(F)F)n1	> 40 µM (inactive)
CC1(C)CC(=O)c2sc(NS(C)(=O)=O)nc2C1	> 40 µM (inactive)
CCn1ncc(/C=N/NC(=O)c2ccc3c(c2)OCO3)c1C	> 40 µM (inactive)
CCCCn1c(=O)c2c(O)cc(=O)oc2c2ccccc21	> 40 µM (inactive)
CCc1[nH]nc2c1C(c1ccc(Br)s1)C(C#N)=C(N)O2 (stereo not given)	> 40 µM (inactive)
O=c1c(-c2ccc(Cl)cc2)[n+]([O-])c2ccccc2n1OCc1ccccn1	> 40 µM (inactive)
COC(=O)CSc1ncccc1-c1nc2ccccc2[nH]1	> 40 µM (inactive)
O=C(NCCc1ccccn1)C(F)(F)C(F)(F)C(F)(F)C(F)(F)C(F)(F)C(F)(F)C(F)(F)C(F)F	> 40 µM (inactive)
Cc1oc2c(c(=O)c1C)C(=O)CC(c1ccccc1)C2 (stereo not given)	> 40 µM (inactive)
Cc1cc(C)nc(SCc2cc(=O)c(OC(=O)c3ccc(Br)o3)co2)n1	> 40 µM (inactive)
COc1cc(/C=C/C(=O)C2C(=O)C=C(C)OC2=O)cc(OC)c1O (stereo not given)	> 40 µM (inactive)
COC(=O)/C(=C/c1cn(C)c2ccccc12)[N+](=O)[O-]	> 40 µM (inactive)

Compound	EC50
CC(C)OCCCNS(=O)(=O)c1ccc2ccccc2c1	> 40 µM (inactive)
CC(=O)c1c(C)[nH]c(C(=O)OC2CCCCC2=O)c1C (stereo not given)	> 40 µM (inactive)
Cc1ccc(N2NC(=O)/C(=C\c3cc4c(cc3[N+](=O)[O-])OCO4)C2=O)cc1C	> 40 µM (inactive)
CN1CCN(CC(=O)Nc2ccc(Cl)cc2Cl)CC1	> 40 µM (inactive)
COc1ccc(OC)c(NC(=S)N2CCN(C/C=C/c3ccccc3)CC2)c1	> 40 µM (inactive)
CC1Cc2ccccc2N1C(=O)Cn1cnc2ccccc2c1=O (stereo not given)	> 40 µM (inactive)
CC1=CN2C(=N)/C(=C/c3ccc([N+](=O)[O-])o3)C(=O)N=C2S1	> 40 µM (inactive)
CCC(=NCCc1c(C)[nH]c2ccc(C)cc12)C1=C(O)CC(c2ccccc2)CC1=O (stereo not given)	> 40 µM (inactive)
O=C(Nc1cccnc1)c1c(O)c2cccc3c2n(c1=O)CC3	> 40 µM (inactive)
c1ccc(-c2cc(N3CCOCC3)nc3ccccc23)cc1	> 40 µM (inactive)
COc1ccccc1CN(Cc1nc2ccccc2c(=O)[nH]1)C(=O)Nc1cccc(C)c1	> 40 µM (inactive)
CCc1ccc(CC2S/C(=C(\C#N)C(C)=O)NC2=O)cc1 (stereo not given)	> 40 µM (inactive)
O=c1cc(-c2c(F)c(F)c(F)c(F)c2F)oc2c(F)c(F)c(F)c(F)c12	> 40 µM (inactive)
CCOC(=O)C1C(=O)C(C(C)=O)C(=O)CC1CC(C)SCC (stereo not given)	> 40 µM (inactive)
COc1ccc(CN2C(=O)/C(=C/c3ccncc3)SC2=S)cc1	> 40 µM (inactive)
CC(C)C(C(=O)O)N1C(=O)/C(=C/c2cccn2C)SC1=S (stereo not given)	> 40 µM (inactive)
Cc1ccccc1NC(=O)c1ccccc1	> 40 µM (inactive)
CC(C)n1c(=O)c2c(O)cc(=O)oc2c2ccccc21	> 40 µM (inactive)
COc1ccc2c(=O)c3c(=O)n(Cc4ccco4)c(-c4ccco4)nc3oc2c1	> 40 µM (inactive)
COc1cc(OC)cc(-c2nc3ccccc3c(=O)n2OC(=O)c2ccc(Br)cc2)c1	> 40 µM (inactive)
c1ccc(-c2c(-c3ccccc3)n(Cc3ccco3)c3ncnc(NCCCn4ccnc4)c23)cc1	> 40 µM (inactive)
COc1ccc(O)c(C(=O)c2cc(C#N)c(=O)n(CC3CCCO3)c2)c1 (stereo not given)	> 40 µM (inactive)
O=C(/C(=C/c1ccccc1)n1cncn1)c1ccc(Cl)cc1Cl	> 40 µM (inactive)
CCCC(=Nc1ccccc1OC)C1=C(O)CC(c2ccccc2)CC1=O (stereo not given)	> 40 µM (inactive)
Cc1nn(C(C)(C)C)c(OC(=O)c2ccc(Br)o2)c1Sc1ccccc1	> 40 µM (inactive)
